Consider 17 compounds from PubChem BioAssay AID434954 (Broad Institute, 2010).

Activity calls are given as the source filed them.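 The calls were made as follows: active = IC50 at or below a set limit above the highest tested dose; inconclusive = flat curve with 30 to 70% inhibition, or poor fit; inactive = the rest.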 Where only a bound is given, the exact number is not on record here.

For this experiment, the target named is Glycogen synthase kinase-3 beta (Homo sapiens) (UniProt P49841). Nature of the experiment: GSK3beta kinase inhibitor potency, dose response, biochemical, luminescence, cell-free homogeneous, retest (AID 434954). As to conditions: recombinant GSK3beta, ADP-Glo luminescence, 60 min.
Sequence of Glycogen synthase kinase-3 beta (Homo sapiens) (P49841 whole entry, looked up): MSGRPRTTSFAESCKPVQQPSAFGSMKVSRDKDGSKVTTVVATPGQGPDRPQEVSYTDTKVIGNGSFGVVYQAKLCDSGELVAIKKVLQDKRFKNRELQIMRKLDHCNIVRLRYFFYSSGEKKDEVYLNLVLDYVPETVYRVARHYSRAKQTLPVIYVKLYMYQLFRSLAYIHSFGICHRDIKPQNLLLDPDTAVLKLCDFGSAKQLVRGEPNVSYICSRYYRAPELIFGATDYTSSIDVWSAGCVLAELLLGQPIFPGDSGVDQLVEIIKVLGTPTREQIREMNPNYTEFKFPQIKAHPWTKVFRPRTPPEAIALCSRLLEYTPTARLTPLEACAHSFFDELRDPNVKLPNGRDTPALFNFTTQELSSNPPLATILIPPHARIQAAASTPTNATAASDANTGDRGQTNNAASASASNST
The term IC50 denotes the concentration that gives 50% inhibition. `O=[N+]([O-])c1cc(/C=N\O)ccc1Oc1ccc(F)cc1`: the IC50 is 23 µM. Then `CCOC(=O)C1=C(C)Nc2ncnn2C1/C=C/c1ccccc1` (configuration not stated), with > 30 µM (inactive); and `Nc1ncnc2c1ncn2C1OC(COP(=O)(O)O)C(O)C1O` (configuration not stated), with > 30 µM (inactive).

On to `O=[N+]([O-])c1ccc2[nH]c(O)c(N=NC3CS(=O)(=O)CC3O)c2c1` (configuration not stated), for which the IC50 was 23 µM. On to `COc1ccc(C2C(C#N)=C(C)NC3=C2C(=O)CC(C)(C)C3)cc1` (configuration not stated), for which the IC50 is > 30 µM (inactive). For `Oc1[nH]c2ccccc2c1C=Nc1ccc2c(c1)OCO2`, the concentration for half-maximal inhibition (IC50) was 11.4 µM. Then `C(=N\Nc1nccc(-c2cccnc2)n1)/c1ccccc1`, with 16.9 µM; and `CCCC1=C(C(=O)OCC)C(c2sccc2C)n2ncnc2N1` (configuration not stated), with > 30 µM (inactive). Next, `O=C1C(=O)N(c2ccccn2)C(c2ccc(Br)cc2)/C1=C(/O)c1ccc(Br)cc1` (configuration not stated): > 30 µM (inactive). As to `CC1(C)CC(=O)C2=C(C1)Nc1[nH]c(=S)[nH]c(=O)c1C2c1ccccc1` (configuration not stated), the IC50 was > 30 µM (inactive). As for `O/N=C/c1cn(-c2ccccc2)nc1-c1cccnc1`, the half-maximal inhibitory concentration (IC50) was 6.45 µM. Consider `O=C(O)c1ccc(/C=N/Nc2ccc(C(F)(F)F)cn2)cc1`, for which the IC50 was 20.4 µM. Consider `CC1=C(C(=O)OCC2CCCO2)C(c2ccsc2)C2=C(CC(C)(C)CC2=O)N1` (configuration not stated), for which the IC50 was > 30 µM (inactive). Then `COc1cccc(C2C3=C(CCCC3=O)Nc3[nH]n(-c4ccccc4)c(=O)c32)c1` (configuration not stated), with > 30 µM (inactive); and `Cc1ccc(C2C3=C(CC(C)(C)CC3=O)Nc3onc(C)c32)cc1` (configuration not stated), with > 30 µM (inactive); and `CC1=C(C#N)C(c2ccc(O)cc2)C2=C(CC(C)(C)CC2=O)N1` (configuration not stated), with > 30 µM (inactive).

Turning to `O=C(Nc1cccc2c1C(=O)NC2=O)c1cccc(N2C(=O)CCC2=O)c1`, the IC50 was > 30 µM (inactive).
